In patent US20230339878A1, “SLC26A3 INHIBITORS AND USE THEREOF” (THE REGENTS OF THE UNIVERSITY OF CALIFORNIA, priority 2018, published 2023):
Entries after “also recorded” stand apart in the source; their conditions may differ.

How the values were obtained:
Type in all cases: in vivo
[1] = test system: loperamide-treated wild-type mice; experiment: Loperamide-induced constipation model in wild-type mice
Protocol: Female CD1 mice (age 8-10 weeks) were administered loperamide (0.3 mg/kg, intraperitoneally, Sigma-Aldrich) to produce constipation. Compound A1 (DRAinh-A250) (5 mg/kg, in saline containing vehicle (5% DMSO and 10% Kolliphor HS 15; Sigma-Aldrich)), tenapanor (5 mg/kg, in vehicle), both compounds (5 mg/kg each, in vehicle), or vehicle alone were administered by oral gavage 1 hour before loperamide. After loperamide injection, mice were placed individually in metabolic cages with ad libitum access to food and water. Stool samples were collected for 3 h, and total stool weight and number of fecal pellets were quantified. To measure stool water content, stool samples were dried at 80° C. for 24 h and water content was calculated as [wet weight-dry weight]/wet weight. Similar studies were done in cystic fibrosis (CF) mice (ΔF508 homozygous) lacking functional CFTR.
Constipation Model in MiceDRAinh-A260 and DRAinh-A270 were tested in a loperamide-induced constipation model in mice. Female CD1 mice (age 8-10 weeks) were administered loperamide (0.3 mg/kg, intraperitoneally, in 5% ethanol in PBS, 0.1 mg/mL final concentration) to produce constipation and vehicle in control mice. DRAinh-A260 (5 mg/kg, in saline with 5% DMSO and 10% Kolliphor HS 15) or DRAinh-A270 (1, 3 or 10 mg/kg, in PBS with 5% DMSO and 20% (2- hydroxypropyl)-β-cyclodextrin) or vehicle alone were administered by oral gavage 1 hour before loperamide (FIG. 11A). After loperamide injection, mice were placed individually in metabolic cages with free access to food and water. Stool samples were collected for 3 hours, and total stool weight and number of fecal pellets were quantified. To measure stool water content, stool samples were dried at 80° C. for 24 hours and water content was calculated as [wet weight-dry weight]/wet weight.

[2] = test system: acute hyperoxaluria in mice; experiment: Acute hyperoxaluria induced by oral sodium oxalate
Protocol: The efficacy of Compound A1 (DRAinh-A250) and DRAinh-A270 were tested in models of acute hyperoxaluria and oxalate nephropathy in mice. To induce acute hyperoxaluria, mice were given sodium oxalate ([…]) with or without 5 mg/kg Compound A1 by oral gavage at zero time and urine was collected for the next 4 hours in metabolic cages. A group of mice were used as controls and treated with vehicle only (no sodium oxalate or DRA inhibitor) and their urine was collected for 4 hours in metabolic cages as well. Using the 4 hour urine samples, urine oxalate/creatinine ratio was determined to quantify urinary oxalate excretion.
Similar experiments were performed for DRAinh-A270 in the acute hyperoxaluria model. For these experiments mice were first placed in metabolic cages to collect urine for 4 hours without any treatment. After this initial collection, the mice were treated with DRAinh-A270 (10 mg/kg) or vehicle intraperitoneally, and given sodium oxalate ([…], in water) by oral gavage at zero time. Urine was collected for the next 4 hours in metabolic cages.

[3] = test system: oxalate nephropathy model in mice; experiment: Oxalate nephropathy model induced by high oxalate diet
Protocol: To induce oxalate nephropathy, mice were fed with high oxalate (0.67%) and low calcium (<0.01%) diet as described (Am J Physiol Renal Physiol 310: F785-F795, 2016). […] Mice were started high oxalate diet at Day 0 and treated with Compound A1 (5 mg/kg) or vehicle by oral gavage twice daily starting at Day 0. At Day 14, urine was collected for 24 hours in metabolic cages and centrifuged to examine urine sediment, then mice were euthanized and kidneys were used for histological analysis.
The kidneys harvested at Day 14 were examined for kidney damage using H & E staining, and for crystal deposition using polarized light microscopy.
Similar experiments in oxalate nephropathy model were performed using DRAinh-A270. For these experiments mice had 3-hour urine collections at Day 0, 7 and 14. High oxalate diet was started on Day 0 after initial urine collection and mice were given DRAinh-A270 or vehicle intraperitoneally twice daily for 14 days.

[4] = 5 mg/kg oral twice daily, Day 14

SMILES | three-hour stool weight, number of pellets and stool water content ([1]; 5 mg/kg oral gavage 1 hour before loperamide, wild-type mice) | 4 hour urine oxalate/creatinine ratio (hyperoxaluria) ([2]; 5 mg/kg oral gavage with sodium oxalate 1 µmol/kg) | insoluble urine sediment [3, 4] | kidney damage, H & E staining [3, 4] | renal crystal deposition, polarized light microscopy [3, 4] | stool parameters / diarrhea in control mice ([1]; 10 mg/kg oral, mice not treated with loperamide) | stool weight, pellet number and water content, dose-dependence ([1]; 1, 3 or 10 mg/kg oral gavage 1 hour before loperamide) | 4-hour urine oxalate/creatinine ratio (hyperoxaluria) ([2]; 10 mg/kg intraperitoneally, sodium oxalate 2.5 µmol/kg oral) | development of renal failure ([3]; intraperitoneally twice daily for 14 days) | body weight change compared to Day 0 ([3]; intraperitoneally twice daily for 14 days, Day 7 and Day 14) | 3-hour urine oxalate / creatinine ratio ([3]; intraperitoneally twice daily, Day 7 vs Day 0) | serum creatinine ([3]; intraperitoneally twice daily, Day 14)
Cc1c(CC(=O)O)c(=O)oc2c(C)c(OCc3cccc(Br)c3)ccc12 [Compound A1] | partially prevented; also recorded: comparably reduced signs of constipation; also recorded: reduces loperamide-induced constipation | largely prevented hyperoxaluria | greatly reduced; also recorded: greatly reduces urine sediment | prevention of kidney damage; also recorded: prevents renal damage | prevention of crystal deposition; also recorded: prevents renal crystal deposition | – | – | – | – | – | – | –
Cc1c(CC(=O)O)c(=O)oc2c(C)c(OCc3cccc(I)c3)ccc12 [DRAinh-A270] | – | – | – | – | – | did not affect stool parameters or cause diarrhea | dose-dependence in normalizing stool weight and pellet number, and water content; also recorded: normalizes stool water content even at low doses | largely prevented hyperoxaluria | prevents development of renal failure; also recorded: prevents weight loss, hyperoxaluria and renal failure | maintained their weight better; also recorded: prevents weight loss, hyperoxaluria and renal failure | largely prevented development of hyperoxaluria; also recorded: prevents weight loss, hyperoxaluria and renal failure | normal serum creatinine
